Results published in the METLIN SMRT retention time set (Domingo-Almenara et al. 2019).

experiment: gradient 5% acetonitrile 3 min, to 50% in 2 min, to 85% in 15 min, held 3 min, 100 µL/min; details: column: Zorbax Extend-C18 2.1 x 50 mm; eluents: water / acetonitrile, 0.1% formic acid
Method in brief: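 Standards, all pure, were combined into mixtures of ~100 molecules and run at 100 μL/min on a Zorbax Extend-C18 column (2.1 × 50 mm, 1.8 μm) with water and acetonitrile, each containing 0.1% formic acid. A coupled quadrupole time-of-flight mass spectrometer operated in positive and negative ionization mode. Retention time values come from computationally picked adduct peaks, each inspected manually.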

RP-LC retention time [s] | Compound
873 | CCc1onc(C)c1C1CCCN1C(=O)Nc1ccc(Cl)cc1 (centres undefined)
722 | Cn1cc(CCNC(=O)Nc2ccccc2Br)c2cccnc21
658 | Cc1ccc(NC(=O)N2CCC(N3CCN(Cc4ccccn4)C(=O)C3=O)CC2)cc1Cl
737 | Cc1nc(-c2ccccc2)sc1C(=O)Nc1c(C)nc2ccc(Cl)cn2c1=O
727 | CSc1ccc(NC(=O)c2cn3c(n2)CSCC3)cc1
830 | Cn1ncc2c(N3CCSCC3)nc(C(=O)N3CCN(c4ccccc4)CC3)nc21
680 | CN(C)C(=O)c1ccc2c(c1)N(CC(=O)Nc1ccccn1)C(=O)C1CCCCN21 (centres undefined)
858 | CCOc1ccc(NC(=O)N2CCC3(CC2)NC(=O)c2cc(Cl)ccc2N3C)cc1
597 | CC1CCCN(c2ncc(C(=O)NCc3ccccc3)c(N)n2)C1 (centres undefined)
848 | CCOC(=O)c1sc(NC(C)=O)nc1-c1ccccc1
892 | Cc1noc(-c2ccnc(-n3ncc(C(=O)NC4CCCCC4)c3C)c2)n1
1210 | Cn1c(C(=O)NC2CCCCC2)cc2c(-c3cccs3)nn(-c3ccccc3)c21
603 | CCCC(=O)Nc1nc2ccc(CCC(=O)N3CCN(c4ccccn4)CC3)cc2s1
689 | COC(=O)c1cnc2nc(C)ccc2c1Nc1cc(F)ccc1C

The next lines start with the compound.

Compound | RP-LC retention time [s]
O=C(NCCCN1CCOCC1)C1c2ccccc2C(=O)N(C2CCCC2)C1c1cccs1 (centres undefined) | 646
O=C1NC2(CCN(C(=O)c3ccc4c(c3)OCO4)CC2)Nc2cc(Cl)ccc21 | 708
[O-]/[N+](=C\c1ccccc1)CC1(O)CCCCC1 | 798
CCc1nn(CC(=O)N2CCC(C(N)=O)CC2)c(=O)c2cc3sccc3n12 | 614
O=S(=O)(c1c[nH]c2ncccc12)N1CCc2ccccc21 | 763
CCCc1cc(N2CCN(C(=O)c3sccc3C)CC2)nc2nnc(C)n12 | 566
CCSc1nnc(-c2nn(C)c3c2CN(S(=O)(=O)c2ccc(C(C)C)cc2)CC3)n1CC | 1090
COc1cccc(CNC(=O)N2CCC(n3c(-c4ccco4)nc4cccnc43)C2)c1 (centres undefined) | 712
Cc1nc2cc(-c3noc(-c4ccc(Br)o4)n3)ccc2o1 | 1090
COc1ccc(-c2c(C)noc2NC(C)=O)cc1S(=O)(=O)N(C)c1ccc(C)cc1 | 830
C=CCn1c(SCC(=O)OCC)nnc1-c1ccc([N+](=O)[O-])cc1 | 743
O=S(=O)(c1ccc2nc(N3CCN(c4ccc(F)cc4)CC3)ccc2c1)N1CCCC1 | 951
O=C(NC1CCCCC1)C1c2cccn2CC(=O)N1Cc1ccc(F)cc1 (centres undefined) | 918
Cc1nnc([C@@H]2CC(F)(F)CN2C(=O)c2nn(C)c3ccccc23)o1 | 788
CCOc1ccc(-c2cn3ccn(-c4ccc(C)cc4C)c(=O)c3n2)cc1 | 921
O=C(C1CCN(S(=O)(=O)c2ccc3[nH]c(=O)ccc3c2)CC1)N1CCN(c2ccccc2)CC1 | 735
CCOc1ccc2nc(NC(=O)C3CCN(C(=O)C4Sc5ccccc5NC4=O)CC3)sc2c1 (centres undefined) | 826
Cc1nnc(N2CCCC(C(=O)NCCc3ccco3)C2)c2nn(-c3ccc(Cl)cc3)c(C)c12 (centres undefined) | 743
O=C(NCCc1c[nH]c2ccc(Cl)cc12)c1cncc(Br)c1 | 851
CC[C@@]1(O)C[C@H](OC2CC(N(C)C)C(O)C(C)O2)c2c(cc3c(c2O)C(=O)c2c(O)ccc(O)c2C3=O)[C@H]1C(=O)OC (some centres undefined) | 717
Cc1ccc(C(=O)NCC2CC(=O)N(c3ccc(Cl)cc3)C2)cc1[N+](=O)[O-] (centres undefined) | 822
Fc1ccccc1Cc1nc(-c2cccc(-c3ccn[nH]3)c2)no1 | 939
Cc1cc(C(F)F)n2nc(C(=O)Nc3ccc(F)cc3C)nc2n1 | 811
CCN1CCc2c(sc(-n3cccc3)c2CNC(=O)Nc2cc(C)ccc2OC)C1 | 718
O=C(O)c1ccc(NCCCO)c([N+](=O)[O-])c1 | 587
CCOC(=O)c1c(C)c(CCC(=O)NCCN2CCCCCC2)c(C)n1C | 656
O=C(c1ccc2c(c1)OCO2)N1[C@H]2CC[C@@H]1c1cnc(-c3ccccc3)nc1C2 | 914
O=C(c1cc(-c2ccccc2Cl)nc2ccccc12)N1CCN(c2ccccn2)CC1 | 676
COc1ccc(-c2cc3n(n2)CCCN(C(=O)NCCc2ccccc2)C3)cc1 | 814
Cc1ccc(CSc2nccc3c2ccn3CC(=O)NCc2ccco2)cc1 | 729
